# Laboratory results: patent US12077503B2, “Substituted cyclic amides and their use as herbicides” (FMC CORPORATION, priority 2015, dated 2024)
# Experiments:
# Type in all cases: in vivo
# [1] = tested on: giant foxtail (Setaria faberii); test: Test A preemergence
# Outline: (§1)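 Compounds were formulated in a non-phytotoxic solvent mixture with surfactant and applied as a preemergence directed soil spray after seeding, or sprayed postemergence over plants 2 to 10 cm tall at the one- to two-leaf stage. Evaluation after about 10 d compared treated with untreated controls, using a scale from 0 (no effect) to 100 (complete control).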
# [2] = tested on: barnyardgrass (Echinochloa crus-galli); test: Test A preemergence
# Outline: as §1
# [3] = tested on: pigweed (Amaranthus retroflexus); test: Test A preemergence
# [4] = tested on: ragweed (common ragweed, Ambrosia elatior); test: Test A preemergence
# Outline: as §1
# Kochia (Kochia scoparia) [5] = test: Test A preemergence
# Outline: as §1
# [6] = tested on: ryegrass, Italian (Italian ryegrass, Lolium multiflorum); test: Test A preemergence
# Outline: as §1
# [7] = tested on: Galium (catchweed bedstraw, Galium aparine); test: Test A postemergence
# Outline: as §1
# [8] = tested on: wheat (Triticum aestivum); test: Test A postemergence
# Outline: as §1
# [9] = tested on: giant foxtail (Setaria faberii); test: Test A postemergence
# Outline: as §1
# [10] = tested on: barnyardgrass (Echinochloa crus-galli); test: Test A postemergence
# Outline: as §1
# [11] = tested on: pigweed (Amaranthus retroflexus); test: Test A postemergence
# Outline: as §1
# [12] = tested on: ragweed (common ragweed, Ambrosia elatior); test: Test A postemergence
# Outline: as §1
# corn (Zea mays) = test: Test A postemergence
# Outline: as §1
# Kochia (Kochia scoparia) [13] = test: Test A postemergence
# Outline: as §1
# [14] = tested on: ryegrass, Italian (Italian ryegrass, Lolium multiflorum); test: Test A postemergence
# Outline: as §1
# [15] = tested on: blackgrass (Alopecurus myosuroides); test: Test A postemergence
# Outline: as §1
# rice (Oryra sativa) = test: Test B flooded paddy test; conditions: Flood, 250 g ai/ha; for Rice plant response rating: 0 to 100 scale where 0 is no effect and 100 is complete control
# Outline: (§2)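 Flooding to 3 cm over soil accompanied treatment, which consisted of adding compound to the standing water around 2-leaf plants; depth was then maintained. Visual assessment versus controls followed at 13 to 15 d (scale 0–100, 0 meaning no effect).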
# [16] = tested on: barnyardgrass (Echinochloa crus-galli); test: Test B flooded paddy test; conditions: Flood, 250 g ai/ha; for Barnyardgrass plant response rating: 0 to 100 scale where 0 is no effect and 100 is complete control
# Outline: as §2
# [17] = tested on: sedge, umbrella (small-flower umbrella sedge, Cyperus difformis); test: Test B flooded paddy test; conditions: Flood, 250 g ai/ha; for Sedge, Umbrella plant response rating: 0 to 100 scale where 0 is no effect and 100 is complete control
# Outline: as §2
# [18] = tested on: ducksalad (Heteranthera limosa); test: Test B flooded paddy test; conditions: Flood, 250 g ai/ha; for Ducksalad plant response rating: 0 to 100 scale where 0 is no effect and 100 is complete control
# Outline: as §2
# [19] = 125 g ai/ha, Preemergence, visual injury rating after approximately 10 d
# [20] = 500 g ai/ha, preemergence, visual injury rating about 10 d after treatment, 0 to 100 scale (0 no effect, 100 complete control)
# [21] = 125 g ai/ha, Postemergence, visual injury after approximately 10 d, 0 to 100 scale where 0 is no effect and 100 is complete control
# [22] = 500 g ai/ha, postemergence, visual injury, 0 to 100 scale (0 no effect, 100 complete control), approx. 10 d
# [23] = 31 g ai/ha, Preemergence, 0 to 100 scale where 0 is no effect and 100 is complete control
# [24] = 125 g ai/ha, preemergence, 0 to 100 scale where 0 is no effect and 100 is complete control, approx. 10 d
# [25] = 125 g ai/ha, postemergence, visual injury vs untreated controls after approx. 10 d, 0 = no effect, 100 = complete control
# [26] = Postemergence, 31 g ai/ha, visual injury after approx. 10 d, 0 to 100 scale, 0 no effect, 100 complete control
structure (smiles),measurement,setting,value
CN1C[C@H](c2cccc(OC(F)(F)C(F)F)c2)[C@@H](C(=O)Nc2ccccc2[S+](C)[O-])C1=O (some centres unmarked) [Compound 863],pest or weed control at 125 g/ha,"[1]; Setaria faberi, pre-emergence, 240 h, 125 g ai/ha, preemergence, 0 to 100 scale where 0 is no effect and 100 is complete control, read-out: Foxtail, Giant plant response rating",90%
same,pest or weed control at 125 g/ha,"[2]; Echinochloa crus-galli, pre-emergence, 240 h, 125 g ai/ha, preemergence, 0 to 100 scale where 0 is no effect and 100 is complete control, read-out: Barnyardgrass plant response rating",50%
same,pest or weed control at 125 g/ha,"[3]; Amaranthus retroflexus, pre-emergence, 240 h, 125 g ai/ha, preemergence, 0 to 100 scale where 0 is no effect and 100 is complete control, read-out: Pigweed plant response rating",70%
same,pest or weed control at 125 g/ha,"[4]; Ambrosia artemisiifolia, pre-emergence, 240 h, 125 g ai/ha, preemergence, 0 to 100 scale where 0 is no effect and 100 is complete control, read-out: Ragweed plant response rating",0%
same,pest or weed control at 125 g/ha,"Kochia (Kochia scoparia) [5]; Bassia scoparia, pre-emergence, 240 h, 125 g ai/ha, preemergence, 0 to 100 scale where 0 is no effect and 100 is complete control, read-out: Kochia plant response rating",80%
same,pest or weed control at 125 g/ha,"[6]; Lolium multiflorum, pre-emergence, 240 h, 125 g ai/ha, preemergence, 0 to 100 scale where 0 is no effect and 100 is complete control, read-out: Ryegrass, Italian plant response rating",0%
same,pest or weed control at 125 g/ha,"[7]; Galium, post-emergence, 240 h, 125 g ai/ha, postemergence, visual injury rating after approximately 10 d, read-out: Galium plant response rating (0 to 100 scale, 0 no effect, 100 complete control)",30%
same,plant injury at 125 g/ha,"[8]; Triticum aestivum, post-emergence, 240 h, 125 g ai/ha, postemergence, visual injury rating after approximately 10 d, read-out: Wheat plant response rating (0 to 100 scale, 0 no effect, 100 complete control)",0%
same,pest or weed control at 125 g/ha,"[9]; Setaria faberi, post-emergence, 240 h, 125 g ai/ha, postemergence, visual injury rating after approximately 10 d, read-out: Foxtail, Giant plant response rating (0 to 100 scale, 0 no effect, 100 complete control)",20%
same,pest or weed control at 125 g/ha,"[10]; Echinochloa crus-galli, post-emergence, 240 h, 125 g ai/ha, postemergence, visual injury rating after approximately 10 d, read-out: Barnyardgrass plant response rating (0 to 100 scale, 0 no effect, 100 complete control)",70%
same,pest or weed control at 125 g/ha,"[11]; Amaranthus retroflexus, post-emergence, 240 h, 125 g ai/ha, postemergence, visual injury rating after approximately 10 d, read-out: Pigweed plant response rating (0 to 100 scale, 0 no effect, 100 complete control)",50%
same,pest or weed control at 125 g/ha,"[12]; Ambrosia artemisiifolia, post-emergence, 240 h, 125 g ai/ha, postemergence, visual injury rating after approximately 10 d, read-out: Ragweed plant response rating (0 to 100 scale, 0 no effect, 100 complete control)",0%
same,plant injury at 125 g/ha,"corn (Zea mays); Zea mays, post-emergence, 240 h, 125 g ai/ha, postemergence, visual injury rating after approximately 10 d, read-out: Corn plant response rating (0 to 100 scale, 0 no effect, 100 complete control)",30%
same,pest or weed control at 125 g/ha,"Kochia (Kochia scoparia) [13]; Bassia scoparia, post-emergence, 240 h, 125 g ai/ha, postemergence, visual injury rating after approximately 10 d, read-out: Kochia plant response rating (0 to 100 scale, 0 no effect, 100 complete control)",40%
same,pest or weed control at 125 g/ha,"[14]; Lolium multiflorum, post-emergence, 240 h, 125 g ai/ha, postemergence, visual injury rating after approximately 10 d, read-out: Ryegrass, Italian plant response rating (0 to 100 scale, 0 no effect, 100 complete control)",0%
same,pest or weed control at 125 g/ha,"[15]; Alopecurus myosuroides, post-emergence, 240 h, 125 g ai/ha, postemergence, visual injury rating after approximately 10 d, read-out: Blackgrass plant response rating (0 to 100 scale, 0 no effect, 100 complete control)",0%
same,pest or weed control at 250 g/ha,"rice (Oryra sativa); Oryza sativa, scale of 0 to 100 where 0 is no effect and 100 is complete control, read-out: Rice plant response rating",0%
same,pest or weed control at 250 g/ha,"[16]; Echinochloa crus-galli, scale of 0 to 100 where 0 is no effect and 100 is complete control, read-out: Barnyardgrass plant response rating",0%
same,pest or weed control at 250 g/ha,"[17]; Cyperus difformis, scale of 0 to 100 where 0 is no effect and 100 is complete control, read-out: Sedge, Umbrella plant response rating",0%
same,pest or weed control at 250 g/ha,"[18]; Heteranthera limosa, scale of 0 to 100 where 0 is no effect and 100 is complete control, read-out: Ducksalad plant response rating",0%
Cc1ccc([C@H]2CN(C)C(=O)[C@@H]2C(=O)Nc2ccccc2[S+](C)[O-])cc1Cl (some centres unmarked) [Compound 1017],"Foxtail, Giant plant response rating (0 to 100 scale, 0 is no effect, 100 is complete control)",[1]; [19],90
same,"Foxtail, Giant plant response rating",[1]; [20],90
same,"Barnyardgrass plant response rating (0 to 100 scale, 0 is no effect, 100 is complete control)",[2]; [19],90
same,Barnyardgrass plant response rating,[2]; [20],90
same,"Pigweed plant response rating (0 to 100 scale, 0 is no effect, 100 is complete control)",[3]; [19],50
same,Pigweed plant response rating,[3]; [20],60
same,"Ragweed plant response rating (0 to 100 scale, 0 is no effect, 100 is complete control)",[4]; [19],0
same,Ragweed plant response rating,[4]; [20],90
same,"Kochia plant response rating (0 to 100 scale, 0 is no effect, 100 is complete control)",Kochia (Kochia scoparia) [5]; [19],0
same,Kochia plant response rating,Kochia (Kochia scoparia) [5]; [20],70
same,"Ryegrass, Italian plant response rating (0 to 100 scale, 0 is no effect, 100 is complete control)",[6]; [19],0
same,"Ryegrass, Italian plant response rating",[6]; [20],70
same,"Plant response rating, Galium",[7]; [21],40
same,"Plant response rating, Galium",[7]; [22],70
same,"Plant response rating, Wheat",[8]; [21],20
same,"Plant response rating, Wheat",[8]; [22],60
same,"Plant response rating, Foxtail, Giant",[9]; [21],90
same,"Plant response rating, Foxtail, Giant",[9]; [22],90
same,"Plant response rating, Barnyardgrass",[10]; [21],90
same,"Plant response rating, Barnyardgrass",[10]; [22],90
same,"Plant response rating, Pigweed",[11]; [21],0
same,"Plant response rating, Pigweed",[11]; [22],40
same,"Plant response rating, Ragweed",[12]; [21],0
same,"Plant response rating, Ragweed",[12]; [22],40
same,"Plant response rating, Corn",corn (Zea mays); [21],80
same,"Plant response rating, Corn",corn (Zea mays); [22],90
same,"Plant response rating, Kochia",Kochia (Kochia scoparia) [13]; [21],40
same,"Plant response rating, Kochia",Kochia (Kochia scoparia) [13]; [22],60
same,"Plant response rating, Ryegrass, Italian",[14]; [21],30
same,"Plant response rating, Ryegrass, Italian",[14]; [22],50
same,"Plant response rating, Blackgrass",[15]; [21],0
same,"Plant response rating, Blackgrass",[15]; [22],40
same,Rice plant response rating,rice (Oryra sativa),30
same,Barnyardgrass plant response rating,[16],70
same,"Sedge, Umbrella plant response rating",[17],0
same,Ducksalad plant response rating,[18],90
CN1C[C@@H](c2ccc([N+](=O)[O-])cc2)[C@H](C(=O)Nc2cccc(F)c2F)C1=O [Compound 1165],"Foxtail, Giant plant response rating",[1]; [23],70
same,"Foxtail, Giant plant response rating",[1]; [24],90
same,Barnyardgrass plant response rating,[2]; [23],70
same,Barnyardgrass plant response rating,[2]; [24],90
same,Pigweed plant response rating,[3]; [23],40
same,Pigweed plant response rating,[3]; [24],50
same,Ragweed plant response rating,[4]; [23],0
same,Ragweed plant response rating,[4]; [24],30
same,Kochia plant response rating,Kochia (Kochia scoparia) [5]; [23],0
same,Kochia plant response rating,Kochia (Kochia scoparia) [5]; [24],70
same,"Ryegrass, Italian plant response rating",[6]; [23],0
same,"Ryegrass, Italian plant response rating",[6]; [24],0
same,Galium plant response rating (0 to 100 scale),[7]; [25],60
same,"Plant response rating, Galium",[7]; [26],20
same,Wheat plant response rating (0 to 100 scale),[8]; [25],30
same,"Plant response rating, Wheat",[8]; [26],0
same,"Foxtail, Giant plant response rating (0 to 100 scale)",[9]; [25],70
same,"Plant response rating, Foxtail, Giant",[9]; [26],70
same,Barnyardgrass plant response rating (0 to 100 scale),[10]; [25],80
same,"Plant response rating, Barnyardgrass",[10]; [26],40
same,Pigweed plant response rating (0 to 100 scale),[11]; [25],30
same,"Plant response rating, Pigweed",[11]; [26],10
same,Ragweed plant response rating (0 to 100 scale),[12]; [25],0
same,"Plant response rating, Ragweed",[12]; [26],0
same,Corn plant response rating (0 to 100 scale),corn (Zea mays); [25],30
same,"Plant response rating, Corn",corn (Zea mays); [26],0
same,Kochia plant response rating (0 to 100 scale),Kochia (Kochia scoparia) [13]; [25],30
same,"Plant response rating, Kochia",Kochia (Kochia scoparia) [13]; [26],30
same,"Ryegrass, Italian plant response rating (0 to 100 scale)",[14]; [25],20
same,"Plant response rating, Ryegrass, Italian",[14]; [26],0
same,Blackgrass plant response rating (0 to 100 scale),[15]; [25],0
same,"Plant response rating, Blackgrass",[15]; [26],0
same,Rice plant response rating,rice (Oryra sativa),45
same,Barnyardgrass plant response rating,[16],95
same,"Sedge, Umbrella plant response rating",[17],0
same,Ducksalad plant response rating,[18],90
